# Structures can show the parent of a compound that is named as a salt.
# Tests used:
# [1] = tested on: mRNA expressed from the genes (A) to (D) in rat liver; test: Behavior of genes (mRNA expression level, oligo-DNA microarray) in rat liver after 28-day oral administration; assay type: in vivo
# Method in brief: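 Male F344 SPF rats, 5 weeks old, four per group, dosed by oral gavage once daily for 28 days with test chemical or matched-volume solvent. Liver total RNA profiled on oligo-DNA microarray. Change ≥1.5-fold or ≤1/1.5 versus vehicle counted as significant if its direction matched that seen with other carcinogens.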
# liver = settings: in vivo; cited from earlier work
# rodent = settings: in vivo; cited from earlier work
# [2] = gene group (A), Unigene No. Rn.167075, mRNA vs vehicle control group
# [3] = gene group (C), Unigene No. Rn.120914, mRNA vs vehicle control group
# [4] = (C), Unigene Rn.120914, defined direction +, rat liver, oral once daily 28 days
compound,measurement,setting,value
"CCCCC(CC)COC(=O)c1ccccc1C(=O)OCC(CC)CCCC (stereo not drawn) [TS002, Di(2-ethylhexyl)phthalate]","Behavior of gene caused by administration of chemical substance, Gene No. 4846","[1]; gene group (A), Unigene No. Rn.144554, mRNA vs vehicle control group",−
same,"Behavior of gene caused by administration of chemical substance, Gene No. 2026",[1]; [2],+
same,"Behavior of gene caused by administration of chemical substance, Gene No. 4218",[1]; [2],−
same,"Behavior of gene caused by administration of chemical substance, Gene No. 6182","[1]; gene group (A), Unigene No. Rn.5834, mRNA vs vehicle control group",−
same,"Behavior of gene caused by administration of chemical substance, Gene No. 5600","[1]; gene group (A), Unigene No. Rn.9836, mRNA vs vehicle control group",−
same,"Behavior of gene caused by administration of chemical substance, Gene No. 1494","[1]; gene group (B), Unigene No. Rn.1430, mRNA vs vehicle control group",+
same,"Behavior of gene caused by administration of chemical substance, Gene No. 2045","[1]; gene group (B), Unigene No. Rn.19329, mRNA vs vehicle control group",+
same,"Behavior of gene caused by administration of chemical substance, Gene No. 2203","[1]; gene group (B), Unigene No. Rn.21240, mRNA vs vehicle control group",+
same,"Behavior of gene caused by administration of chemical substance, Gene No. 533","[1]; gene group (C), Unigene No. Rn.106184, mRNA vs vehicle control group",+
same,"Behavior of gene caused by administration of chemical substance, Gene No. 725","[1]; gene group (C), Unigene No. Rn.108075, mRNA vs vehicle control group",+
same,"Behavior of gene caused by administration of chemical substance, Gene No. 1163","[1]; gene group (C), Unigene No. Rn.11766, mRNA vs vehicle control group",−
same,"Behavior of gene caused by administration of chemical substance, Gene No. 4973","[1]; gene group (C), Unigene No. Rn.118529, mRNA vs vehicle control group",+
same,"Behavior of gene caused by administration of chemical substance, Gene No. 4095","[1]; gene group (C), Unigene No. Rn.119024, mRNA vs vehicle control group",+
same,"Behavior of gene caused by administration of chemical substance, Gene No. 1334",[1]; [3],−
same,"Behavior of gene caused by administration of chemical substance, Gene No. 6620",[1]; [3],−
same,"Behavior of gene caused by administration of chemical substance, Gene No. 6303","[1]; gene group (C), Unigene No. Rn.123063, mRNA vs vehicle control group",−
same,"Behavior of gene caused by administration of chemical substance, Gene No. 5878","[1]; gene group (C), Unigene No. Rn.143213, mRNA vs vehicle control group",−
same,"Behavior of gene caused by administration of chemical substance, Gene No. 1131","[1]; gene group (C), Unigene No. Rn.144946, mRNA vs vehicle control group",+
same,"Behavior of gene caused by administration of chemical substance, Gene No. 1562","[1]; gene group (C), Unigene No. Rn.14744, mRNA vs vehicle control group",−
same,"Behavior of gene caused by administration of chemical substance, Gene No. 1741","[1]; gene group (C), Unigene No. Rn.1647, mRNA vs vehicle control group",−
same,"Behavior of gene caused by administration of chemical substance, Gene No. 893","[1]; gene group (C), Unigene No. Rn.164817, mRNA vs vehicle control group",−
same,"Behavior of gene caused by administration of chemical substance, Gene No. 6026","[1]; gene group (C), Unigene No. Rn.167685, mRNA vs vehicle control group",−
same,"Behavior of gene caused by administration of chemical substance, Gene No. 154","[1]; gene group (C), Unigene No. Rn.185941, mRNA vs vehicle control group",−
same,"Behavior of gene caused by administration of chemical substance, Gene No. 1993","[1]; gene group (C), Unigene No. Rn.18728, mRNA vs vehicle control group",−
same,"Behavior of gene caused by administration of chemical substance, Gene No. 813","[1]; gene group (C), Unigene No. Rn.201760, mRNA vs vehicle control group",+
same,"Behavior of gene caused by administration of chemical substance, Gene No. 2494","[1]; gene group (C), Unigene No. Rn.23969, mRNA vs vehicle control group",−
same,"Behavior of gene caused by administration of chemical substance, Gene No. 2546","[1]; gene group (C), Unigene No. Rn.24561, mRNA vs vehicle control group",−
same,"Behavior of gene caused by administration of chemical substance, Gene No. 3776","[1]; gene group (C), Unigene No. Rn.43232, mRNA vs vehicle control group",−
same,"Behavior of gene caused by administration of chemical substance, Gene No. 3929","[1]; gene group (C), Unigene No. Rn.4620, mRNA vs vehicle control group",−
same,"Behavior of gene caused by administration of chemical substance, Gene No. 1119","[1]; gene group (C), Unigene No. Rn.9757, mRNA vs vehicle control group",−
same,"Behavior of gene caused by administration of chemical substance, Gene No. 6742","[1]; gene group (C), Unigene No. Rn.9779, mRNA vs vehicle control group",+
same,"Behavior of gene caused by administration of chemical substance, Gene No. 5634","[1]; gene group (C), Unigene No. Rn.9862, mRNA vs vehicle control group",−
same,"Behavior of gene caused by administration of chemical substance, Gene No. 5726","[1]; gene group (D), Unigene No. Rn.9939, mRNA vs vehicle control group",−
same,Liver carcinogenicity,liver,Cr+
same,Carcinogenicity,rodent,C+
"Cc1ccc(N)cc1N [TS004, 2,4-Diaminotoluene]","Behavior of gene caused by administration of chemical substance, Gene No. 4846","[1]; (A), Unigene Rn.144554, defined direction +, rat liver, oral once daily 28 days",+
same,"Behavior of gene caused by administration of chemical substance, Gene No. 4218","[1]; (A), Unigene Rn.167075, defined direction +, rat liver, oral once daily 28 days, significant = 1.5 times or more or 1/1.5 or less of control",+
same,"Behavior of gene caused by administration of chemical substance, Gene No. 2026","[1]; (A), Unigene Rn.167075, defined direction −, rat liver, oral once daily 28 days",+
same,"Behavior of gene caused by administration of chemical substance, Gene No. 6182","[1]; (A), Unigene Rn.5834, defined direction +, rat liver, oral once daily 28 days",+
same,"Behavior of gene caused by administration of chemical substance, Gene No. 5600","[1]; (A), Unigene Rn.9836, defined direction +, rat liver, oral once daily 28 days",+
same,"Behavior of gene caused by administration of chemical substance, Gene No. 1494","[1]; (B), Unigene Rn.1430, defined direction −, rat liver, oral once daily 28 days",+
same,"Behavior of gene caused by administration of chemical substance, Gene No. 2045","[1]; (B), Unigene Rn.19329, defined direction +, rat liver, oral once daily 28 days",−
same,"Behavior of gene caused by administration of chemical substance, Gene No. 2203","[1]; (B), Unigene Rn.21240, defined direction +, rat liver, oral once daily 28 days",−
same,"Behavior of gene caused by administration of chemical substance, Gene No. 533","[1]; (C), Unigene Rn.106184, defined direction +, rat liver, oral once daily 28 days",−
same,"Behavior of gene caused by administration of chemical substance, Gene No. 725","[1]; (C), Unigene Rn.108075, defined direction −, rat liver, oral once daily 28 days",+
same,"Behavior of gene caused by administration of chemical substance, Gene No. 1163","[1]; (C), Unigene Rn.11766, defined direction +, rat liver, oral once daily 28 days",−
same,"Behavior of gene caused by administration of chemical substance, Gene No. 4973","[1]; (C), Unigene Rn.118529, defined direction −, rat liver, oral once daily 28 days",−
same,"Behavior of gene caused by administration of chemical substance, Gene No. 4095","[1]; (C), Unigene Rn.119024, defined direction −, rat liver, oral once daily 28 days",−
same,"Behavior of gene caused by administration of chemical substance, Gene No. 1334",[1]; [4],−
same,"Behavior of gene caused by administration of chemical substance, Gene No. 6620",[1]; [4],−
same,"Behavior of gene caused by administration of chemical substance, Gene No. 6303","[1]; (C), Unigene Rn.123063, defined direction −, rat liver, oral once daily 28 days",−
same,"Behavior of gene caused by administration of chemical substance, Gene No. 5878","[1]; (C), Unigene Rn.143213, defined direction −, rat liver, oral once daily 28 days",−
same,"Behavior of gene caused by administration of chemical substance, Gene No. 1131","[1]; (C), Unigene Rn.144946, defined direction −, rat liver, oral once daily 28 days",−
same,"Behavior of gene caused by administration of chemical substance, Gene No. 1562","[1]; (C), Unigene Rn.14744, defined direction −, rat liver, oral once daily 28 days",−
same,"Behavior of gene caused by administration of chemical substance, Gene No. 1741","[1]; (C), Unigene Rn.1647, defined direction −, rat liver, oral once daily 28 days",−
same,"Behavior of gene caused by administration of chemical substance, Gene No. 893","[1]; (C), Unigene Rn.164817, defined direction +, rat liver, oral once daily 28 days",−
same,"Behavior of gene caused by administration of chemical substance, Gene No. 6026","[1]; (C), Unigene Rn.167685, defined direction −, rat liver, oral once daily 28 days",−
same,"Behavior of gene caused by administration of chemical substance, Gene No. 154","[1]; (C), Unigene Rn.185941, defined direction −, rat liver, oral once daily 28 days",−
same,"Behavior of gene caused by administration of chemical substance, Gene No. 1993","[1]; (C), Unigene Rn.18728, defined direction −, rat liver, oral once daily 28 days",−
same,"Behavior of gene caused by administration of chemical substance, Gene No. 813","[1]; (C), Unigene Rn.201760, defined direction +, rat liver, oral once daily 28 days",−
same,"Behavior of gene caused by administration of chemical substance, Gene No. 2494","[1]; (C), Unigene Rn.23969, defined direction +, rat liver, oral once daily 28 days",−
same,"Behavior of gene caused by administration of chemical substance, Gene No. 2546","[1]; (C), Unigene Rn.24561, defined direction −, rat liver, oral once daily 28 days",−
same,"Behavior of gene caused by administration of chemical substance, Gene No. 3776","[1]; (C), Unigene Rn.43232, defined direction −, rat liver, oral once daily 28 days",−
same,"Behavior of gene caused by administration of chemical substance, Gene No. 3929","[1]; (C), Unigene Rn.4620, defined direction +, rat liver, oral once daily 28 days",−
same,"Behavior of gene caused by administration of chemical substance, Gene No. 1119","[1]; (C), Unigene Rn.9757, defined direction +, rat liver, oral once daily 28 days",−
same,"Behavior of gene caused by administration of chemical substance, Gene No. 6742","[1]; (C), Unigene Rn.9779, defined direction +, rat liver, oral once daily 28 days",−
same,"Behavior of gene caused by administration of chemical substance, Gene No. 5634","[1]; (C), Unigene Rn.9862, defined direction −, rat liver, oral once daily 28 days",−
same,"Behavior of gene caused by administration of chemical substance, Gene No. 5726","[1]; (D), Unigene Rn.9939, defined direction −, rat liver, oral once daily 28 days",−
same,Liver carcinogenicity,liver,Cr+
same,Carcinogenicity,rodent,C+
"CN(C)CCN(Cc1cccs1)c1ccccn1 [TS053, Methapyrilene HCl]",Liver carcinogenicity,liver,Cr+
same,Carcinogenicity,rodent,C+

# — patent US20110039721A1, “METHOD FOR PREDICTION ABOUT CARCINOGENICITY OF SUBSTANCE IN RODENT” (Chemicals Evaluation and Research Institute, priority 2007, published 2011)
